# Measured values as given in paper PMC3796549 (PLoS ONE, 2013).
# Where two headings read alike, the source gives them in different places.
# Experiments:
# PtpB [1] = target: T1, PtpB (Mycobacterium tuberculosis, UniProt P96830); assay: biochemical; conditions: for Ki: pNPP 0.2-12.8 mM, mean ± SD; for Type of inhibition: with respect to substrate pNPP
# T1 construct: made in house
# human PTP1B = target: T2, human PTP1B (Homo sapiens, UniProt P18031); assay: biochemical; conditions: for IC50: pNPP substrate, mean ± SD, 3 experiments
# T2 construct: made in house
# T2 sequence (P18031 1-435): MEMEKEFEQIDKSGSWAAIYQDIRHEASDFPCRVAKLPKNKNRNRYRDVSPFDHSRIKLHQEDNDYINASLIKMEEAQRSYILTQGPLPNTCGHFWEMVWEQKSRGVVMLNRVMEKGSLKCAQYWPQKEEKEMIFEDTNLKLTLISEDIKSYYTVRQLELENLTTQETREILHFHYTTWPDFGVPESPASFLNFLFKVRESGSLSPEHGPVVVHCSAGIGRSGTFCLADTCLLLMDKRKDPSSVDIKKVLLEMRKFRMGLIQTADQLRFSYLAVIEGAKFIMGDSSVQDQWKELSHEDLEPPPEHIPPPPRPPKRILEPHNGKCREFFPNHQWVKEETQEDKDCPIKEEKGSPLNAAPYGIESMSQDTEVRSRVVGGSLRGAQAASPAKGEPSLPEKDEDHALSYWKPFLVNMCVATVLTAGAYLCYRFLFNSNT
# PtpB from Mtb = target: T3, PtpB from Mtb (Mycobacterium tuberculosis, UniProt P96830); assay: biochemical; type: biochemical
# T3 construct: made in house
# T3 sequence (P96830 1-276): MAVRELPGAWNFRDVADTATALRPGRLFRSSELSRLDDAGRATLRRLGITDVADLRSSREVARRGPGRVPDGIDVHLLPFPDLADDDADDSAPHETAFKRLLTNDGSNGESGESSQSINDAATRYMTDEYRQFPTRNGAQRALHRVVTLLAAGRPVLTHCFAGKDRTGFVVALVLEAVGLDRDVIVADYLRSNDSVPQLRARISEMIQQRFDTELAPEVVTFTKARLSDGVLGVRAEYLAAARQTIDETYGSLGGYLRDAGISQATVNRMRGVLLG
# trypsin = target: T4, trypsin (Sus scrofa, UniProt P00761); assay: Inhibition of trypsin by the inhibitor itself; type: biochemical
# T4 construct: purchased Promega
# T4 sequence (P00761 9-231): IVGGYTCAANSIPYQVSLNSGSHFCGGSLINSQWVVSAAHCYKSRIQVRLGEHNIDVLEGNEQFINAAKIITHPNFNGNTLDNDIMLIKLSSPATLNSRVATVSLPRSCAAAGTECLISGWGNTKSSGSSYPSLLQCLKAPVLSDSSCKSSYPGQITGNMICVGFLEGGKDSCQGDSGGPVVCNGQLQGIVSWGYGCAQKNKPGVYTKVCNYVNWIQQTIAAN
# PtpB [2] = target: T1, PtpB; conditions: 300 µM inhibitor, PtpB 5 µM, 3 hours 37 °C
# [3] = pNPP substrate, 37 °C, imidazole pH 7.0, mean ± SD, 3 experiments
# T1 sequence (P96830 1-276): as the sequence (P96830 1-276) above
Structure (SMILES),IC50 / Ki (PtpB [1]),Ki (PtpB [1]),Type of inhibition (PtpB [1]),IC50 (human PTP1B),IC50 (PtpB from Mtb; [3]),SI (Selectivity index) (human PTP1B),also measured
"CC(C)=CCc1c(C)c(CC=C(C)C)c2c(c1O)C(=O)c1c(O)cc(O)c(CC=C(C)C)c1C2 [PirIII, 1,3,8-trihydroxy-6-methyl-4,5,7-triprenylanthrone]",0.8,6.6 ± 2.7 µM,Non-competitive,11.8 ± 3.5 µM,5.4 ± 0.6 µM,–,–
"O[C@@H]1OC[C@H](Cc2ccc3c(c2)OCO3)[C@H]1Cc1ccc2c(c1)OCO2 [α-Cub, α-cubebin]",–,–,–,–,–,–,PtpB enzymatic inhibition (in words) (PtpB from Mtb): not active; IC50 (PtpB from Mtb; pH 7): > 100 µM
"COc1c(C2COc3cc(O)c(CC=C(C)C)c(O)c3C2=O)ccc(O)c1CC=C(C)C (centres unmarked) [M2, isosophoranone]",–,–,–,–,19.8 ± 2.3 µM,–,–
"COc1ccc(CCC(=O)c2c(O)cc(OC)c(CC=C(C)C)c2OC)cc1CC=C(C)CCC=C(C)C [59-triMe, 4,2’,4’-trimethoxy-6’-hydroxy,3’-prenyl-3-geranyldihydrochalcone]",–,–,–,–,> 100 µM,–,–
"COc1ccc([C@@H]2CC(=O)c3c(O)cc(O[C@@H]4O[C@H](CO[C@@H]5O[C@@H](C)[C@H](O)[C@@H](O)[C@H]5O)[C@@H](O)[C@H](O)[C@H]4O)cc3O2)cc1O [Hesp, hesperidin]",–,–,–,–,> 100 µM,–,PtpB enzymatic inhibition (in words) (PtpB from Mtb; up to 100 µM): not active
"COc1c(C)c(OC(C)=O)c2c(c1-c1c(OC)c(C)c(OC(C)=O)c3c1C(=O)c1cc(C)cc(OC(C)=O)c1C3=O)C(=O)c1cc(C)cc(OC(C)=O)c1C2=O [Ac3, tetra-acetyl-trachypone]",1.9,17.1 ± 4.5 µM,Competitive,31.2 ± 2.7 µM,33.2 ± 4.9 µM,0.9,–
"COc1c(C)c(O)c2c(c1-c1c(OC)c(C)c(O)c3c1C(=O)c1cc(C)cc(O)c1C3=O)C(=O)c1cc(C)cc(O)c1C2=O [compound 6016, trachypone]",1.7,11.5 ± 1.7 µM,Competitive,7.1 ± 1.4 µM,19.2 ± 6.7 µM,0.4,–
"CC(C)=CCc1c(C)c(CC=C(C)C)c2c(c1O)C(=O)c1c(O)cc(O)c(CC=C(CO)CO)c1C2 [∆3, 1,3,8-trihydroxy-6-methyl-5,7-diprenyl-4-γ,γ’dihydroxyprenyl-anthrone]",2.0,13.4 ± 1.5 µM,Non-competitive,14.7 ± 2.1 µM,26.7 ± 0.6 µM,0.6,–
"O=C(O)/C=C/c1ccc(OC2O[C@H](CO)[C@@H](O)[C@H](O)[C@H]2O)c(O)c1 (some centres unmarked) [Caf, 4-O-glucosyl caffeic acid]",–,–,–,–,> 100 µM,–,PtpB enzymatic inhibition (in words) (PtpB from Mtb; up to 100 µM): not active
"CC(C)=CCC/C(C)=C/Cc1cc(CCC(=O)c2c(O)cc(O)c(CC=C(C)C)c2O)ccc1O [Ega1, 4,2’,4’,6’-tetrahydroxy-3’-prenyl-3-geranyldihydrochalcone]",0.9,14.5 ± 2.3 µM,Non-competitive,20.9 ± 2.8 µM,13.4 ± 2.6 µM,1.6,–
"CC(C)=CCc1c(O)ccc(C(=O)[C@H]2[C@@H](c3c(O)cc(/C=C/c4ccc(O)cc4O)cc3O)C=C(C)C[C@@H]2c2ccc(O)cc2O)c1O [KuwE, Kuwanol E]",1.2,1.6 ± 0.1 µM,Competitive,9.6 ± 2.6 µM,1.9 ± 0.5 µM,5.1,Inhibition of trypsin (trypsin): not able to inhibit trypsin; Protection of PtpB catalytic site from proteolytic cleavage by trypsin (fragments m/z 1953 and m/z 2224) (PtpB [2]): protecting it from the proteolytic cleavage by trypsin
"COc1c(C2COc3cc(O)c(CCC(C)C)c(O)c3C2=O)ccc(O)c1CCC(C)C (centres unmarked) [M2H, tetra-hydro-isosophoranone]",–,–,–,–,69.4 ± 4.5 µM,–,–
"O=C(/C=C/c1ccc(O)c(O)c1)O[C@@H]1C[C@@](OC(=O)/C=C/c2ccc(O)c(O)c2)(C(=O)O)C[C@@H](O)[C@@H]1O [Cyn, cynarin]",–,–,–,–,> 100 µM,–,PtpB enzymatic inhibition (in words) (PtpB from Mtb; up to 100 µM): not active
"C[N+](C)(C)CCc1c[nH]c2ccc(O)cc12.[I-] [Buf-I, bufotenine CH3I]",–,–,–,–,> 100 µM,–,PtpB enzymatic inhibition (in words) (PtpB from Mtb; up to 100 µM): not active
